According to article PMC8213057, “Targeting ALK2: An Open Science Approach to Developing Therapeutics for the Treatment of Diffuse Intrinsic Pontine Glioma” (Journal of Medicinal Chemistry, 2020):
Where “and” joins values, the source holds several entries; their conditions need not be identical. Identical values can stand only once.

Tests used:
CYP2D6 = target: T1, CYP2D6 (Homo sapiens, UniProt P10635); assay: CYP inhibition assay; type: in vitro ADME; conditions: human liver microsomes
T1 construct: tissue Corning 452117; host or cells: pooled human liver microsomes (UltraPool HLM 150, mixed gender)

CDK6/cyclin D1 = CDK6/cyclin D1 (Homo sapiens, UniProt Q00534); conditions: 1 μM; Run 1, Run 2
FLT4/VEGFR3 = FLT4/VEGFR3 (Homo sapiens, UniProt P35916); conditions: 1 μM; Run 1, Run 2
KSR1 = target: T2, KSR1 (Homo sapiens, UniProt Q8IVT5); assay: biochemical; conditions: read-out: % enzyme activity, 1 μM; Run 1, Run 2
T2 sequence (Q8IVT5 1-923): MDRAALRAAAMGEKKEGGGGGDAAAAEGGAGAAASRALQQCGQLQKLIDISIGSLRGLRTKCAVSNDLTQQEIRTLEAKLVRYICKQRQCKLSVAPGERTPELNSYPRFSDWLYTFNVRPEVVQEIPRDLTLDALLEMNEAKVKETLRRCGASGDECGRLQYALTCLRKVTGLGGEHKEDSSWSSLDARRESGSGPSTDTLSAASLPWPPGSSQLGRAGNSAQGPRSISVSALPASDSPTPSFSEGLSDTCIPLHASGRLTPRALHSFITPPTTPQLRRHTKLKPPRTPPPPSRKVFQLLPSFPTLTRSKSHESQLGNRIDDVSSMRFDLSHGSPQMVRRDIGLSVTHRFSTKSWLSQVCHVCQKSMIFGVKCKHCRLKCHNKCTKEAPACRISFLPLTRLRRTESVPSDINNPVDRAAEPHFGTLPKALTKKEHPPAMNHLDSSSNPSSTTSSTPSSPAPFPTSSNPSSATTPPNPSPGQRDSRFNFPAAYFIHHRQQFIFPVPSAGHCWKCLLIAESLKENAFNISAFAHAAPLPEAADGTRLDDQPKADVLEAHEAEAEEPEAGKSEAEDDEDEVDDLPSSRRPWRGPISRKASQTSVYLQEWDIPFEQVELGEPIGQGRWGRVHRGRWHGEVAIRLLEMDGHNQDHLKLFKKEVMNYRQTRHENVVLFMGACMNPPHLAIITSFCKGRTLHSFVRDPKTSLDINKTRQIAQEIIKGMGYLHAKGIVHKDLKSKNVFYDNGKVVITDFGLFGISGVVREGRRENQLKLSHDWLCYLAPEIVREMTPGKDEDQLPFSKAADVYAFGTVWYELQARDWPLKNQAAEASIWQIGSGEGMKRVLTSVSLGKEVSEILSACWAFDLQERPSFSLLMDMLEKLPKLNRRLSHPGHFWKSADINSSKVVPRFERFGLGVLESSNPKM

LATS2 = target: T3, LATS2 (Homo sapiens, UniProt Q9NRM7); assay: biochemical; conditions: read-out: % enzyme activity, 1 μM; Run 1, Run 2
T3 sequence (Q9NRM7 1-1088): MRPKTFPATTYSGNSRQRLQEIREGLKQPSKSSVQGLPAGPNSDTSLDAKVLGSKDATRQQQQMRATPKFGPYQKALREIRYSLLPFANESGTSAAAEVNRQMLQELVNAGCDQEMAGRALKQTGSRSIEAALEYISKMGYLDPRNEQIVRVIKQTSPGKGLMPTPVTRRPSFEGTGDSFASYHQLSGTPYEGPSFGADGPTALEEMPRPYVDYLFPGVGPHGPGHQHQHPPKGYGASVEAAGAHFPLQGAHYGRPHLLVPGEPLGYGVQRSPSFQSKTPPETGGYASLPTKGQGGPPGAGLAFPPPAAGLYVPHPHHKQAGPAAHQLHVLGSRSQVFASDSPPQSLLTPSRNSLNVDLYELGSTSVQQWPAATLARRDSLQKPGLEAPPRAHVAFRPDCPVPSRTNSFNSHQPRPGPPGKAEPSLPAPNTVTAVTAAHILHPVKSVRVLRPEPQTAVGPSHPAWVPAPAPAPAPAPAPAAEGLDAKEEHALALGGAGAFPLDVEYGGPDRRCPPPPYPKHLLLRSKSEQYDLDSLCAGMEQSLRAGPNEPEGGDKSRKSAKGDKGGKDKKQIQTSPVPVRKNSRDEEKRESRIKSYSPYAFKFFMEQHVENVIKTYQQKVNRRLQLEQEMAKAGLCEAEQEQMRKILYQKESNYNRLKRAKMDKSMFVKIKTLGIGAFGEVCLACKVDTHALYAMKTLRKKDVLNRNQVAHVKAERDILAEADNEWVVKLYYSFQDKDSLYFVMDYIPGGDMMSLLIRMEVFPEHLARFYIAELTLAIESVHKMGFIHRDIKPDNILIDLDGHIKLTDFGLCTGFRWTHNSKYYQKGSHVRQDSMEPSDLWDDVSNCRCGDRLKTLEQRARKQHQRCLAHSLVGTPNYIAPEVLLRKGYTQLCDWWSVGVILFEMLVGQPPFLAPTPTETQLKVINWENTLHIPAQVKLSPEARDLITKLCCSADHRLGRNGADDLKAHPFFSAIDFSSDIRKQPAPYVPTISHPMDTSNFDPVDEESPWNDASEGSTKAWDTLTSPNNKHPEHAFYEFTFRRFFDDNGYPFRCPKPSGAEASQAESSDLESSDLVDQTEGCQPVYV

RIPK3 = RIPK3 (Homo sapiens, UniProt Q9Y572); assay: biochemical; conditions: read-out: % enzyme activity, 1 μM; Run 1, Run 2
STK25/YSK1 = STK25/YSK1 (Homo sapiens, UniProt O00506); assay: biochemical; conditions: read-out: % enzyme activity, 1 μM; Run 1, Run 2
STK25/YSK1, sequence (O00506 whole entry): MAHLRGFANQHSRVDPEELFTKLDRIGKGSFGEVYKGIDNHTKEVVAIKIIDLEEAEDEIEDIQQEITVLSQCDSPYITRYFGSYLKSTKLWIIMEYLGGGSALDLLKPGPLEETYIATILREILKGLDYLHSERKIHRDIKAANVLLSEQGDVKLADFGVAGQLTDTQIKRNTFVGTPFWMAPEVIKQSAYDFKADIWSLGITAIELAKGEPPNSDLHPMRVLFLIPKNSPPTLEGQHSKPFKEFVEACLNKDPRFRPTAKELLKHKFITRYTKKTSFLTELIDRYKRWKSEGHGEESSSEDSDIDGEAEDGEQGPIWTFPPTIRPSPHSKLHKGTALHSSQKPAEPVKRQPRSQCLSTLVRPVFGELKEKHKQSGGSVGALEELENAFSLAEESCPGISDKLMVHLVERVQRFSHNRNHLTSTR

FLT4/VEGFR3, sequence (P35916 25-1363): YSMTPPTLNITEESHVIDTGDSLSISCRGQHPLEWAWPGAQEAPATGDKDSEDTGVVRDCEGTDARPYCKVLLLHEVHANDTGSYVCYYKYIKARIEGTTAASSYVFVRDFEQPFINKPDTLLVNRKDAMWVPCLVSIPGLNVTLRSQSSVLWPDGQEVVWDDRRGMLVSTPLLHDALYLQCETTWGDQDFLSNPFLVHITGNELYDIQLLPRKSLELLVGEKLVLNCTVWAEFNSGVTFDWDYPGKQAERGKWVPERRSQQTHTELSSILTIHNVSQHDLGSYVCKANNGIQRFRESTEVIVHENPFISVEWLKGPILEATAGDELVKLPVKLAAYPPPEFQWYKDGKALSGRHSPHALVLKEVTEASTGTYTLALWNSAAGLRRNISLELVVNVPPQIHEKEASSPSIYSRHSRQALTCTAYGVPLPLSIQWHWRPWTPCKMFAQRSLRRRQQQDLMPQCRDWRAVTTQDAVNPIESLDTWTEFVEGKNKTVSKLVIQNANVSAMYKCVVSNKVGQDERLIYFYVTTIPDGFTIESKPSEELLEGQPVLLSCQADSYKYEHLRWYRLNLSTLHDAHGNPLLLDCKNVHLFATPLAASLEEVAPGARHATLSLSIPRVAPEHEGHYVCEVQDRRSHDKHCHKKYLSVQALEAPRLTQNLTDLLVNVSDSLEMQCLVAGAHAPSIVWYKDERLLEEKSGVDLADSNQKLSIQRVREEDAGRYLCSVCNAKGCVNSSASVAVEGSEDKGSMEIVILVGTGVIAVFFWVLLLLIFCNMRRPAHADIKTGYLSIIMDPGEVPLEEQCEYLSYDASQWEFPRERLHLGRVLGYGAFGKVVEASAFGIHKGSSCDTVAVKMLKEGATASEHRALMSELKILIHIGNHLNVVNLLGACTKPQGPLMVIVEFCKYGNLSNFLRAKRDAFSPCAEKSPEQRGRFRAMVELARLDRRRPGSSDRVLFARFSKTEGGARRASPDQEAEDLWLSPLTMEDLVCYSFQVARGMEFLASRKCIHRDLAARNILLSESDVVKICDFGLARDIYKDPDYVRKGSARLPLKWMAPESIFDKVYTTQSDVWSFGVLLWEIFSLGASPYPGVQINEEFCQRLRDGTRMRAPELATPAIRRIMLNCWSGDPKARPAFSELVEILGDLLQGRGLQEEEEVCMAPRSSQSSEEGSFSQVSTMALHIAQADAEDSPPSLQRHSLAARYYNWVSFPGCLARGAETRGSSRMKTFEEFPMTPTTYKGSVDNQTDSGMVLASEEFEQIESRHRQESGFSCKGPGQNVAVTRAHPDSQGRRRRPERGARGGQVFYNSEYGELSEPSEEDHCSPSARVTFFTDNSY
T1 sequence (P10635 whole entry): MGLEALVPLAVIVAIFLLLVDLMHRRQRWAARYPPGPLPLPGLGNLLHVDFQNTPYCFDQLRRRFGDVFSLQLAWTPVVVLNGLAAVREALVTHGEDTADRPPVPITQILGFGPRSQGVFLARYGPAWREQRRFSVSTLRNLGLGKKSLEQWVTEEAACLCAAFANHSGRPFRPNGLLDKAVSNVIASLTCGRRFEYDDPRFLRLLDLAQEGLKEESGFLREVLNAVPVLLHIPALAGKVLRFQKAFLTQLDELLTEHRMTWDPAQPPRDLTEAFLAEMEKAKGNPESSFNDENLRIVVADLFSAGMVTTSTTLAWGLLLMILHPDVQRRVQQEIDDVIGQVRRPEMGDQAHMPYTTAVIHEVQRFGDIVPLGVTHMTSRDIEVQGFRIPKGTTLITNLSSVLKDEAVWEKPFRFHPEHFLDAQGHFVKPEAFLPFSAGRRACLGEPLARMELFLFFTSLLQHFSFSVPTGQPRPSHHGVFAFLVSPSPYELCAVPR
CDK6/cyclin D1, sequence (Q00534 whole entry): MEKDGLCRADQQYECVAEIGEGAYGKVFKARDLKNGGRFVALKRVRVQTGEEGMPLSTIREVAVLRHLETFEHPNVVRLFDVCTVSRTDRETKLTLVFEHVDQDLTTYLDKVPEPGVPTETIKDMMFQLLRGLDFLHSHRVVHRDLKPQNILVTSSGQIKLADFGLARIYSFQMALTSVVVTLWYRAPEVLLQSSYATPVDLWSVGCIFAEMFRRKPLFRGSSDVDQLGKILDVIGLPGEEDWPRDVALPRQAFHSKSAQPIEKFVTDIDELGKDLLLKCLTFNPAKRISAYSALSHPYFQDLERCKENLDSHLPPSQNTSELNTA
CDK6/cyclin D1, sequence (P24385 whole entry partner): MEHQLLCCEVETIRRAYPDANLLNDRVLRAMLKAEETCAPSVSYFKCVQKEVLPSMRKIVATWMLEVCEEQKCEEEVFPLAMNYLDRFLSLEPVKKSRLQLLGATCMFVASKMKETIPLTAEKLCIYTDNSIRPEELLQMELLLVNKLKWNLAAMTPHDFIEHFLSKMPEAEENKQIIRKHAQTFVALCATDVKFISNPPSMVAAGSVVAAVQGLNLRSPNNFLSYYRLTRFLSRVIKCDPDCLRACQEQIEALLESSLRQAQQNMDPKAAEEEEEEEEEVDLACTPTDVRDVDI
RIPK3, sequence (Q9Y572 whole entry): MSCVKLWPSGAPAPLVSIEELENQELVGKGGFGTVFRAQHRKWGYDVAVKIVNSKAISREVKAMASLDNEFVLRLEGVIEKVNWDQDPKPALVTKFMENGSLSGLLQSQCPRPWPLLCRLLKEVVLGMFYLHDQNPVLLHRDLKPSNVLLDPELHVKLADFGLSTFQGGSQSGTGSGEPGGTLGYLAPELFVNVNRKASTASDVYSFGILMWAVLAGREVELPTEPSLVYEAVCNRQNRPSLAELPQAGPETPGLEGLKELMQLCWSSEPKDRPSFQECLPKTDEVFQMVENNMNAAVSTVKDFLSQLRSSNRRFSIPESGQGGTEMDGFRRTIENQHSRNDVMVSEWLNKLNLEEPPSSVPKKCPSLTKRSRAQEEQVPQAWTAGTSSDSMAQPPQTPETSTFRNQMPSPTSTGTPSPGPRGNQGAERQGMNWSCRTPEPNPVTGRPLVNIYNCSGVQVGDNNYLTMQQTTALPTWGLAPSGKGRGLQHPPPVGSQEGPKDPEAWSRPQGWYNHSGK

Structure (SMILES)	% enzyme activity at 1 μM (BRAF)	IC50 (CYP2D6) [µM]	% enzyme activity (CDK6/cyclin D1) [%]	% enzyme activity (FLT4/VEGFR3) [%]	remaining activity at 1 µM (KSR1) [%]	remaining activity at 1 µM (LATS2) [%]	remaining activity at 1 µM (RIPK3) [%]	remaining activity at 1 µM (STK25/YSK1) [%]
COc1cc(-c2cncc(-c3ccc(N4CCN(C)CC4)cc3)c2C)cc(F)c1C(N)=O [Compound 26a, 2-Fluoro-6-methoxy-4-(4-methyl-5-(4-(4-methylpiperazin-1-yl)phenyl)pyridin-3-yl)benzamide]	28.8%	> 50	97.80	97.81	94.5	106	106	95.7
COc1cc(-c2cncc(-c3ccc(N4C[C@@H](C)N(C)[C@@H](C)C4)cc3)c2C)cc(F)c1C(N)=O [Compound 26c, 2-Fluoro-6-methoxy-4-(4-methyl-5-(4-((3R,5S)-3,4,5-trimethylpiperazin-1-yl)phenyl)pyridin-3-yl)benzamide]	41.1% and 40.5%	> 50	92.80	96.61	96.3	102	104	96.1
